Values after ≈ are worked out from the molar mass of the structure shown. Active and inactive are the calls of the source. The calls are words filed in the database; no cut-off is given here.
What was measured:
Staphylococcus aureus [1] = assay: Antimicrobial activity against Staphylococcus aureus RDN1 harboring cloned pTZ2182-encoded QacBII gene by agar dilution method; assay type: functional
Staphylococcus aureus [2] = assay: Antimicrobial activity against Staphylococcus aureus RDN1 harboring cloned pTZ2396-encoded QacA gene by agar dilution method; assay type: functional
Staphylococcus aureus [3] = assay: Antimicrobial activity against Staphylococcus aureus RDN1 harboring cloned pTZ2238-encoded QacBIV A184V mutant gene by agar dilution method; assay type: functional
Staphylococcus aureus [4] = assay: Antimicrobial activity against Staphylococcus aureus RDN1 harboring cloned pTZ2238-encoded QacBIV E377G mutant gene by agar dilution method; assay type: functional
Staphylococcus aureus [5] = assay: Antimicrobial activity against Staphylococcus aureus RDN1 harboring cloned pTZ2238-encoded QacBIV S151I mutant gene by agar dilution method; assay type: functional
Staphylococcus aureus [6] = assay: Antimicrobial activity against Staphylococcus aureus RDN1 harboring cloned pTZN10 containing cat and bla genes by agar dilution method; assay type: functional
Staphylococcus aureus [7] = assay: Antimicrobial activity against Staphylococcus aureus RDN1 harboring cloned pTZ2238-encoded QacBIV A19T mutant gene by agar dilution method; assay type: functional
Staphylococcus aureus [8] = assay: Antimicrobial activity against Staphylococcus aureus RDN1 harboring cloned pTZ2162-encoded QacBIII E320A mutant gene by agar dilution method; assay type: functional
Staphylococcus aureus [9] = assay: Antimicrobial activity against Staphylococcus aureus RDN1 harboring cloned pTZ2162-encoded QacBIII gene by agar dilution method; assay type: functional
Staphylococcus aureus [10] = assay: Antimicrobial activity against Staphylococcus aureus RDN1 harboring cloned pTZ2238-encoded QacBIV gene by agar dilution method; assay type: functional
[11] = Activity of antiseptic efflux protein QacBIII expressed in Staphylococcus aureus RDN1 assessed as decrease in compound accumulation
[12] = Activity of antiseptic efflux protein QacBIII expressed in Staphylococcus aureus RDN1 assessed as decrease in compound accumulation in presence of CCCP

SMILES	MIC (Staphylococcus aureus [1]) [µg/mL]	MIC (Staphylococcus aureus [2]) [µg/mL]	MIC (Staphylococcus aureus [3]) [µg/mL]	MIC (Staphylococcus aureus [4]) [µg/mL]	MIC (Staphylococcus aureus [5]) [µg/mL]	MIC (Staphylococcus aureus [6]) [µg/mL]	MIC (Staphylococcus aureus [7]) [µg/mL]	MIC (Staphylococcus aureus [8]) [µg/mL]	MIC (Staphylococcus aureus [9]) [µg/mL]	MIC (Staphylococcus aureus [10]) [µg/mL]	Activity [11]	Activity [12]
N=C(NCCCCCCNC(=N)NC(=N)Nc1ccc(Cl)cc1)NC(=N)Nc1ccc(Cl)cc1.O=C(O)[C@H](O)[C@@H](O)[C@H](O)[C@H](O)CO	4	2	4	2	4	0.25	4	4	2	4	–	–
N=C(N)c1ccc(OCCCCCOc2ccc(C(=N)N)cc2)cc1.O=S(=O)(O)CCO	512	512	1020	512	1020	1	1020	512	512	1020	–	–
O=C(O)c1cn(C2CC2)c2cc(N3CCNCC3)c(F)cc2c1=O [CIPROFLOXACIN]	0.06 (≈ 0.181 µM)	0.13 (≈ 0.392 µM)	–	–	–	0.06 (≈ 0.181 µM)	–	0.06 (≈ 0.181 µM)	0.25 (≈ 0.754 µM)	0.06 (≈ 0.181 µM)	Active	inactive
CC(=O)NCC(=O)O.N=C(N)c1ccc(/N=N/Nc2ccc(C(=N)N)cc2)cc1 [DIMINAZEN ACETURATE]	512	2050	2050	512	2050	4	2050	512	1020	2050	–	–
C[n+]1c2cc(N)ccc2cc2ccc(N)cc21.[Cl-] [EUFLAVINE]	1020	1020	1020	1020	1020	1	1020	1020	256	1020	–	–
CN(C)c1ccc(C(=C2C=CC(=[N+](C)C)C=C2)c2ccc(N(C)C)cc2)cc1.[Cl-] [GENTIAN VIOLET]	≥ 1	≥ 1	0.5	≥ 1	0.5	0.13	0.5	≥ 1	0.5	0.5	–	–
CC[n+]1c(-c2ccccc2)c2cc(N)ccc2c2ccc(N)cc21.[Br-] [HOMIDIUM BROMIDE]	≥ 2050	≥ 2050	≥ 2050	≥ 2050	≥ 2050	1	≥ 2050	≥ 2050	256	≥ 2050	–	–
C[C@H]1COc2c(N3CCN(C)CC3)c(F)cc3c(=O)c(C(=O)O)cn1c23.C[C@H]1COc2c(N3CCN(C)CC3)c(F)cc3c(=O)c(C(=O)O)cn1c23.O [LEVOFLOXACIN]	0.25	0.25	–	–	–	0.25	–	0.25	0.25	0.25	–	–
CCn1cc(C(=O)O)c(=O)c2cc(F)c(N3CCNCC3)cc21 [NORFLOXACIN]	0.13 (≈ 0.407 µM)	0.25 (≈ 0.783 µM)	–	–	–	0.13 (≈ 0.407 µM)	–	0.13 (≈ 0.407 µM)	0.5 (≈ 1.57 µM)	0.13 (≈ 0.407 µM)	Active	inactive
[Cl-].c1ccc([P+](c2ccccc2)(c2ccccc2)c2ccccc2)cc1 [TETRAPHENYLPHOSPHONIUM CHLORIDE]	256	256	512	512	512	4	512	256	512	512	–	–
